{"source": "patent USRE46630E1", "about": "“Substituted 4-pyridones and their use as inhibitors of neutrophil elastase activity” (Boehringer Ingelheim International GmbH, priority 2012, dated 2017)", "data": [{"target": "T1, Human neutrophil elastase (Homo sapiens, UniProt P08246)", "T1 construct": "purchased Calbiochem 324681", "T1 sequence (P08246 30-267)": "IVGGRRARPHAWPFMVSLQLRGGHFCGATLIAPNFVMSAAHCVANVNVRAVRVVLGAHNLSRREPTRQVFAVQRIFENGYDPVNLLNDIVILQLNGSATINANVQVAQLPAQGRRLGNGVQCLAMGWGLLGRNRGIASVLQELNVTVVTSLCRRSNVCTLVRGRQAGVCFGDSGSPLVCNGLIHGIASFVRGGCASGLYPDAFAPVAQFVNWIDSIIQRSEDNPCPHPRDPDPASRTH", "assay": "Human Neutrophil Elastase Assay", "type": "biochemical", "settings": "Neutrophil Elastase assay; substrate MeOSuc-Ala-Ala-Pro-Val-AMC 250 μM; 15 min preincubation, 60 min incubation at room temperature; pH 7.5", "method_in_brief": "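Run in 100 mM Tris, 500 mM NaCl, pH 7.5 with 0.01% BSA, with compounds prediluted in DMSO then buffer (5% DMSO final). Fluorescence was read at 380 nm excitation/460 nm emission after enzyme inactivation. Values were normalised to inactivated-enzyme (0%) and uninhibited-enzyme (100%) controls.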", "units": {"IC50": "nM"}, "values": [{"smiles": "Cc1c(-c2cccc(C(F)(F)F)c2)c(=O)c(C(=O)NC2CCS(=O)(=O)C2)cn1Cc1ccc(C#N)cc1", "note": "(stereo not drawn) [Example 1.64]", "IC50": 17.2}, {"smiles": "Cc1c(-c2cccc(C(F)(F)F)c2)c(=O)c(C(=O)NC2CCC(=O)N(C)C2)cn1Cc1ccc(C#N)cc1", "note": "(stereo not drawn) [Example 1.62]", "IC50": 10.4}, {"smiles": "Cc1c(-c2cccc(C(F)(F)F)c2)c(=O)c(C(=O)NCc2ccc(S(C)(=O)=O)c[n+]2[O-])cn1Cc1ccc(C#N)cc1", "note": "[Example 14, Pyridin-N-oxide of example 4.1]", "IC50": "< 1"}, {"smiles": "Cc1c(-c2ccnc(C(F)(F)F)c2)c(=O)c(C(=O)NCc2ccc(S(C)(=O)=O)cc2)cn1Cc1ccc(C#N)c(F)c1", "note": "[Example 5.2]", "IC50": 1.2}, {"smiles": "Cc1c(-c2cccc(C(F)(F)F)c2)c(=O)c(C(=O)NCC(C)O)cn1C(C)c1ccc(C#N)cc1", "note": "(stereo not drawn) [Example 7.14]", "IC50": 4.7}, {"smiles": "Cc1c(-c2ccnc(C(F)(F)F)c2)c(=O)c(C(=O)NCCCO)cn1C(C)c1ccc(C#N)cc1", "note": "(stereo not drawn) [Example 9.1]", "IC50": 4.5}, {"smiles": "Cc1cncc(-c2c(C)n(Cc3ccc(C#N)cc3)cc(C(=O)NCc3ccc(S(C)(=O)=O)cc3)c2=O)c1", "note": "[Example 6.4]", "IC50": 19.3}, {"smiles": "Cc1c(-c2ccnc(C(F)(F)F)c2)c(=O)c(C(=O)NCc2cnn(C)c2)cn1C(C)c1ccc(C#N)cc1", "note": "(stereo not drawn) [Example 9.19]", "IC50": 8.9}, {"smiles": "Cc1c(-c2cccc(C(F)(F)F)c2)c(=O)c(C(=O)N[C@H]2CCC(=O)N(C)C2)cn1Cc1ccc(C#N)cc1", "note": "[Example 1.36]", "IC50": 47.1}, {"smiles": "CNC(=O)c1cn(C(C)c2ccc(C#N)cc2)c(C)c(-c2ccc(F)c(C(F)F)c2)c1=O", "note": "(stereo not drawn) [Example 28]", "IC50": 13.3}, {"smiles": "Cc1c(-c2cccc(C(F)(F)F)c2)c(=O)c(C(=O)NC2CCN(C)C2=O)cn1Cc1ccc(C#N)cc1", "note": "(stereo not drawn) [Example 1.57]", "IC50": 6.8}, {"smiles": "Cc1c(-c2ccnc(C(F)(F)F)c2)c(=O)c(C(=O)NCC2CC(O)C2)cn1C(C)c1ccc(C#N)cc1", "note": "(stereo not drawn) [Example 9.48]", "IC50": 17.3}, {"smiles": "Cc1c(-c2cccc(C(F)(F)F)c2)c(=O)c(C(=O)N[C@@H]2CCNC2=O)cn1Cc1ccc(C#N)cc1", "note": "[Example 1.59]", "IC50": 10.5}, {"smiles": "Cc1c(-c2cccc(C(F)(F)F)c2)c(=O)c(C(=O)NCc2ccc(S(C)(=O)=O)cc2)cn1Cc1ccc(C#N)c(F)c1", "note": "[Example 2.9]", "IC50": "< 1"}, {"smiles": "Cc1c(-c2cccc(C(F)F)c2)c(=O)c(C(=O)NCCn2cccn2)cn1C(C)c1ccc(C#N)cc1", "note": "(stereo not drawn) [Example 8.15]", "IC50": 4.4}, {"smiles": "CCNC(=O)c1cn(C(C)c2ccc(C#N)cc2)c(C)c(-c2ccnc(C(F)(F)F)c2)c1=O", "note": "(stereo not drawn) [Example 9.56]", "IC50": 6.1}, {"smiles": "Cc1c(-c2cccc(C(F)(F)F)c2)c(=O)c(C(=O)NC2CCCNC2=O)cn1Cc1ccc(C#N)cc1", "note": "(stereo not drawn) [Example 1.55]", "IC50": 4.9}, {"smiles": "Cc1c(-c2cccc(C(F)(F)F)c2)c(=O)c(C(=O)NCC(F)F)cn1C(C)c1ccc(C#N)cc1", "note": "(stereo not drawn) [Example 7.20]", "IC50": 3.6}, {"smiles": "CNC(=O)c1cn(Cc2ccc(C#N)cc2F)c(C)c(-c2ccnc(C(F)(F)F)c2)c1=O", "note": "[Example 42, 1-(4-Cyano-2-fluoro-benzyl)-2-methyl-4-oxo-2′-trifluoromethyl-1,4-dihydro-[3,4′]bipyridinyl-5-carboxylic acid methylamide]", "IC50": 46}, {"smiles": "Cc1c(-c2ccnc(C(F)(F)F)c2)c(=O)c(C(=O)NC2CCCC2O)cn1C(C)c1ccc(C#N)cc1", "note": "(stereo not drawn) [Example 9.41]", "IC50": 100}, {"smiles": "Cc1c(-c2cccc(C(F)F)c2)c(=O)c(C(=O)NC2CNC(=O)C2)cn1C(C)c1ccc(C#N)cc1", "note": "(stereo not drawn) [Example 8.7]", "IC50": 1.7}, {"smiles": "CCNC(=O)c1cn(C(C)c2ccc(C#N)cn2)c(C)c(-c2cccc(C(F)F)c2)c1=O", "note": "(stereo not drawn) [Example 18, 1-[1-(5-Cyano-pyridin-2-yl)-ethyl]-5-(3-difluoromethyl-phenyl)-6-methyl-4-oxo-1,4-dihydro-pyridine-3-carboxylic acid ethylamide]", "IC50": 5.4}, {"smiles": "Cc1c(-c2cccc(C(F)F)c2)c(=O)c(C(=O)NC2CCNC2=O)cn1C(C)c1ccc(C#N)cc1", "note": "(stereo not drawn) [Example 8.12]", "IC50": 1.4}, {"smiles": "Cc1c(-c2cccc(C(F)(F)F)c2)c(=O)c(C(=O)NCC2CCN(C)CC2)cn1Cc1ccc(C#N)cc1", "note": "[Example 1.2]", "IC50": 48.3}, {"smiles": "Cc1c(-c2cccc(C(F)(F)F)c2)c(=O)c(C(=O)NCCCS(C)(=O)=O)cn1C(C)c1ccc(C#N)cc1", "note": "(stereo not drawn) [Example 7.3]", "IC50": 1.3}, {"smiles": "Cc1c(-c2ccnc(C(F)(F)F)c2)c(=O)c(C(=O)NC2CCCC2O)cn1C(C)c1ccc(C#N)cc1", "note": "(stereo not drawn) [Example 9.36]", "IC50": 33.9}, {"smiles": "CNC(=O)c1cn(C(C)c2ccc(C#N)cc2)c(C)c(-c2cccc(CF)c2)c1=O", "note": "(single isomer, unassigned) [Example 31B]", "IC50": 4.2}, {"smiles": "Cc1c(-c2cccc(C(F)(F)F)c2)c(=O)c(C(=O)NCC2CCN(C(=O)C[N+](C)(C)C)CC2)cn1Cc1ccc(C#N)cc1", "note": "[Example 12.4, {2-[4-({[1-(4-Cyano-benzyl)-6-methyl-4-oxo-5-(3-trifluoromethyl-phenyl)-1,4-dihydro-pyridine-3-carbonyl]-amino}-methyl)-piperidin-1-yl]-2-oxo-ethyl}-trimethyl-ammonium chloride]", "IC50": 14.4}, {"smiles": "Cc1c(-c2cccc(C(F)(F)F)c2)c(=O)c(C(=O)NC2CCNC2=O)cn1C(C)c1ccc(C#N)cn1", "note": "(stereo not drawn) [Example 47.2]", "IC50": 7.3}, {"smiles": "Cc1c(-c2cccc(C(F)(F)F)c2)c(=O)c(C(=O)NCC(=O)N2CCCC2)cn1Cc1ccc(C#N)cc1", "note": "[Example 1.54]", "IC50": 41.5}, {"smiles": "Cc1c(-c2cccc(C(F)(F)F)c2)c(=O)c(C(=O)NCC2CC2)cn1C(C)c1ccc(C#N)cn1", "note": "(stereo not drawn) [Example 47.5]", "IC50": 16.7}, {"smiles": "C=CCNC(=O)c1cn(C(C)c2ccc(C#N)cc2)c(C)c(-c2ccnc(C(F)(F)F)c2)c1=O", "note": "(stereo not drawn) [Example 9.51]", "IC50": 6}, {"smiles": "Cc1c(-c2cccc(C(F)(F)F)c2)c(=O)c(C(=O)NCCN(C)C)cn1Cc1ccc(C#N)cc1", "note": "[Example 1.6]", "IC50": 30.5}, {"smiles": "Cc1c(-c2cccc(C(F)F)c2)c(=O)c(C(=O)NCCCN(C)C)cn1C(C)c1ccc(C#N)cc1", "note": "(stereo not drawn) [Example 8.1]", "IC50": 4.1}, {"smiles": "Cc1nc(CNC(=O)c2cn(Cc3ccc(C#N)cc3)c(C)c(-c3cccc(C(F)(F)F)c3)c2=O)no1", "note": "[Example 1.60]", "IC50": 13.3}, {"smiles": "Cc1c(-c2cccc(C(F)(F)F)c2)c(=O)c(C(=O)N[C@H]2CCNC2=O)cn1Cc1ccc(C#N)cc1", "note": "[Example 1.58]", "IC50": 8.1}, {"smiles": "CCNC(=O)c1cn(C(C)c2ccc(C#N)cc2)c(C)c(-c2cccc(C(F)F)c2)c1=O", "note": "(stereo not drawn) [Example 8.21]", "IC50": 3}, {"smiles": "Cc1c(-c2cccc(C(F)(F)F)c2)c(=O)c(C(=O)NCC(C)O)cn1C(C)c1ccc(C#N)cc1", "note": "(stereo not drawn) [Example 7.13]", "IC50": 4}, {"smiles": "CCNC(=O)c1cn(Cc2ccc(C#N)cc2)c(C)c(-c2cccc(C(F)(F)F)c2)c1=O", "note": "[Example 1.51]", "IC50": 10.7}, {"smiles": "Cc1noc(CNC(=O)c2cn(Cc3ccc(C#N)cc3S(C)(=O)=O)c(C)c(-c3cccc(C(F)(F)F)c3)c2=O)n1", "note": "[Example 24]", "IC50": 4.8}, {"smiles": "Cc1c(-c2cccc(C(F)(F)F)c2)c(=O)c(C(=O)NCCO)cn1C(C)c1ccc(C#N)cc1", "note": "(stereo not drawn) [Example 7.9]", "IC50": 2.3}, {"smiles": "Cc1c(-c2cccc(C(F)(F)F)c2)c(=O)c(C(=O)NC2CNC(=O)C2)cn1C(C)c1ccc(C#N)cc1", "note": "(stereo not drawn) [Example 7.7]", "IC50": 2.4}, {"smiles": "Cc1c(-c2cccc(C(F)(F)F)c2)c(=O)c(C(=O)NCC(C)(C)O)cn1C(C)c1ccc(C#N)cc1", "note": "(stereo not drawn) [Example 7.15]", "IC50": 10.3}, {"smiles": "CCOCCNC(=O)c1cn(Cc2ccc(C#N)cc2)c(C)c(-c2cccc(C(F)(F)F)c2)c1=O", "note": "[Example 1.24]", "IC50": 10}, {"smiles": "Cc1c(-c2ccnc(C(F)(F)F)c2)c(=O)c(C(=O)NCC(N)=O)cn1C(C)c1ccc(C#N)cc1", "note": "(stereo not drawn) [Example 9.18]", "IC50": 7.5}]}]}
